Tested on: DU145 (human prostate cancer cells)
Test: Antiproliferative activity, WST1 colorimetric test, DU145
Format: cell-based
Settings: 96 hours treatment, 0 to 25 μM
Protocol: Characterization of the Antiproliferative Activity:
By way of example, the effect of a treatment on two human cell lines Mia-Paca2 and DU145 by the compounds of Examples 1 to 33 described previously will be studied. The cell lines DU145 (human prostate cancer cells) and Mia-PaCa2 (human pancreas cancer cells) were acquired from the American Tissue Culture Collection (Rockville, Md., USA). The cells placed in 95 μl of Dulbecco's Modified Eagle's medium (Gibco-Brl, Cergy-Pontoise, France) completed with 10% foetal calf serum inactivated by heating (Gibco-Brl, Cergy-Pontoise, France), 100 units/l of penicillin and 100 μg/ml/l of streptomycin (Gibco-Brl, 10378-057, Cergy-Pontoise, France), and 2 mM of glutamine (Gibco-Brl, Cergy-Pontoise, France) were seeded on a 96-well plate on day 0. The cells were treated on day 1 for 96 hours with 5 μl of each of the compounds at concentrations increasing from 0 to 25 μM final concentration. At the end of this period, quantification of cell proliferation is evaluated by a colorimetric test based on the cleavage of the tetrazolium salt WST1 by the mitochondrial dehydrogenases in viable cells leading to the formation of formazan (Boehringer Mannheim, Meylan, France). These tests are carried out in duplicate with 8 determinations per concentration tested. […]

Compound: CC[C@H](CO)Nc1nc(NCc2ccccc2)c2ncn(C(C)C)c2n1 [Roscovitine]
- antiproliferative activity regarding DU-145 cells: no antiproliferative activity

From patent US20040048849A1, “Cyclin-dependent kinase (cdk) and glycolene synthase kinase-3 (gsk-3) inhibitors” (priority 2000, published 2004)
